Several values for one entry are separate records, joined by “and”; a condition that tells them apart may be missing. Equal values may be shown once.
Test system: PHA-producing microbial cells
Assay: flask cultures: effect of cell debris solutions and SDS on cell growth and PHA formation
Assay type: cell-based
Settings: for Cell mass: 12 g/L glucose
Method: Starting with cell mass of high PHA content (72% w/w), production of 1 kg of PHA, in a purity of 96.4 w/w, generates about 0.45 kg of cell debris as shown in the scheme reported above. Disposal of this large amount of waste in aqueous solution is a task of high cost, but could be avoided with additional benefit if the cell debris could be reused in PHA fermentation. In order to reveal the effect of cell debris on cell growth and PHA formation, microbial cultures were conducted in 500 mL flasks in parallel. The flask cultures were set up with the same glucose concentrations (10-20 g/L), the same volume of mineral solution (160 mL) as shown in Table 1 reported hereinbelow, and the same inoculum and size. After predetermined amount of cell debris solutions were added, the total volume of flask cultures was raised to 200 mL by adding pre-sterilized distilled and deionized water. The flasks were shaken at 200 rpm and 30 ° C. in a rotary incubator for 24 or 48 hours. The cell mass concentration and PHA content were determined as described in the literature (see Jian Yu and Lilian X. L. Chen (2006), “Cost-effective recovery and purification of polyhydroxyalkanoates by selective dissolution of cell mass”, Biotechnology Progress, 22:547-553). […]
Surfactants such as SDS are optionally used in PHA recovery to disrupt cells and remove lipids and pigments from polyesters. They are soluble and left in the cell debris solutions, which may cause adverse effect on cell growth when the cell debris solution is reused in PHA fermentation. An acid-base cell debris solution containing 48.5 g/L of soluble solids and 5 g/L of SDS was used in this case. In the same flask cultures above (12 g/L of glucose), 8 mL of ABCDS was added to give 1.94 g/L of cell debris and 0.2 g/L of SDS. Additional SDS was also added to increase SDS concentration to 0.4, 0.6 and 0.8 g/L. Table 4 gives the results of cell growth and PHA formation at different surfactant levels. […] The benefit of cell debris at low SDS concentration (0.2-0.4 g/L) leads to 200-300% of increase in PHA concentration in comparison with the control.

With `CCCCCCCCCCCCOS(=O)(=O)[O-].[Na+]` [SDS, sodium dodecyl sulfate] the “PHA formation vs control without cell debris and surfactant” value (SDS 0.2-0.6 g/L with 1.94 g/L cell debris) was “enhanced”, the Cell mass (SDS 0.2 g/L with 1.94 g/L cell debris (ABCDS), 24 hours) was 3.69 g/L and the Cell mass (SDS 0.2 g/L with 1.94 g/L cell debris (ABCDS), 48 hours) was 4.99 g/L. The Cell mass (SDS 0.4 g/L with 1.94 g/L cell debris (ABCDS), 24 hours, sulfate) was 3.22 g/L and 3.33 g/L, the Cell mass (SDS 0.4 g/L with 1.94 g/L cell debris (ABCDS), 48 hours, sulfate) was 4.46 g/L and 4.62 g/L and the Cell mass (SDS 0.6 g/L with 1.94 g/L cell debris (ABCDS), 24 hours) was 2.70 g/L. For the same compound, the Cell mass (SDS 0.6 g/L with 1.94 g/L cell debris (ABCDS), 48 hours) was 3.51 g/L, the “PHA formation vs control without cell debris and surfactant” value (SDS 0.8 g/L with 1.94 g/L cell debris) was “damaged to a great extent” and the Cell mass (SDS 0.8 g/L with 1.94 g/L cell debris (ABCDS), 24 hours) was 2.59 g/L. The Cell mass (SDS 0.8 g/L with 1.94 g/L cell debris (ABCDS), 48 hours) was 3.54 g/L.
